Test results published in patent US20260124221A1, “INJECTABLE PHARMACEUTICAL COMPOSITION FOR TREATMENT OF BREAST CANCER” (KASHIV BIOSCIENCES, LLC, priority 2021, published 2026).

How the values were obtained:
[1] = Stability of Compound I in solubilised composition; type: physicochemical
Text: Example 15: Stability of Compound I in Solubilised Composition
Example 16: Stability of Compound I in Solubilised Composition
Example 17: Stability of Compound I in Solubilised Composition

[2] = Pharmacokinetics after single intramuscular administration in female SD rats (Example 18); type: in vivo; settings: Sprague-Dawley, rat, plasma, im, 59 mg/kg, Compound I 100 mg/mL, mean ± SD; for AUC(0-t): read-out: AUClast of Compound I in plasma
Experimental: The objective of the study was to evaluate single site Vs. two site IM injection of compound I and it impact on pharmacokinetic exposure in female rats. Study was performed in female SD rats with n=6 animals per group. Faslodex 52 mg/kg (human equivalent dose) was administrated at two IM sites by dividing dose volume to half. In similar manner, 59 mg/kg (100 mg/mL compound I concentration) (52 mg/kg Fulvestrant equivalent) was administered as single injection (one IM site) or two IM injection by dividing dose volume in half. […] At each time point, −0.3 mL blood was collected in tubes containing Li-heparin as anti-coagulant. For plasma separation, blood was centrifuges at 5000 rpm for 10 minutes at 4° C. and collected plasma was stored at −80° C. until further analysis.
Bioanalysis in plasma samples was performed using fit-for-purpose LC-MS/MS method for the quantification Fulvestrant and Compound I. Linearity range for Fulvestrant and Compound I analytes were 2 to 2000 ng/mL. The bioanalytical summary for Fulvestrant concentration in all three groups is shown in table 1 and graphical representation is shown in FIG. 1 Concentration of Compound I is shown in table 2 and graphical representation is shown in FIG. 2. The plasma pharmacokinetic parameters for Fulvestrant and Compound I were calculated using standard non-compartmental analysis (Phoenix® software, version 8.1, Pharsight Corporation, Mountain View, California 94040/USA) linear trapezoidal method with linear interpolation.

[3] = Pharmacokinetics after single intramuscular administration in female Beagle dogs (Example 19); type: in vivo; settings: 17 mg/kg IM, mean ± SD; for Cmax / Tmax / AUC(0-inf) / AUC(0-t): female, beagle, dog, plasma, im, 17 mg/kg; for AUC(0-inf): read-out: AUCinf—obs of Compound I in plasma; for AUC(0-t): read-out: AUClast of Compound I in plasma
Experimental: A total of 9 female Beagle dogs were used in this study. The study was performed as a parallel design study.
(§1) All dogs were administered intramuscularly at the gluteal region.
(§2) Dose volume was equally divided and administered to two IM sites.
(§3) At each time point, −0.5 mL of blood was withdrawn and transferred into a pre-labelled K2EDTA coated vacutainer tubes and mixed gently by inverting the tube to facilitate mixing of anticoagulant with the blood. Blood samples were kept on gel packs until centrifugation. The collected blood samples were centrifuged at 5000 rpm for 5 min at 4° C. Plasma was separated after centrifugation. All plasma samples were transferred into pre-labeled (Animal ID No., Time point, Study No., and Group) tubes and stored at −70±10° C. until analysis.
Bioanalysis in plasma samples was performed using fit-for-purpose LC-MS/MS method for the quantification of—Group 1—Fulvestrant • Group 2—Fulvestrant and Compound I • Group 3—Fulvestrant and Compound I
Linearity range for Fulvestrant and Compound I analytes were 1 to 1000 ng/mL. The bioanalytical summary for Fulvestrant concentration in all three groups is shown in table 4 and graphical representation is shown in FIG. 3 Concentration of pro-drug Compound I is shown in table 5 and graphical representation is shown in FIG. 4. The plasma pharmacokinetic parameters for Fulvestrant and Compound I were calculated using standard non-compartmental analysis (Phoenix® software, version 8.3, Pharsight Corporation, Mountain View, California 94040/USA) linear trapezoidal method with linear interpolation. Ratio of fulvestrant obtained after dosing Compound I to that of Faslodex was calculated for parameters Cmax and AUC is reported in Table 6(A) and Table 6(B).

[4] = Pharmacokinetic study in female Beagle dog, 169.5 mg/mL composition (Example 24); type: in vivo; settings: female Beagle dogs, Compound I 169.5 mg/mL, 17 mg/kg IM, two sites
Experimental: A total of 2 female beagle dogs were used in this study.
as §1, §2
as §3, with “pre-labeled” for “pre-labelled”
Bioanalysis of plasma samples was performed using fit-for-purpose LC-MS/MS method for the quantification of fulvestrant and Compound I.
Linearity range for Fulvestrant and Compound I analytes were 1 to 1000 ng/mL. The plasmapharmacokinetic parameters for Fulvestrant and Compound I were calculated using standard non-compartmental analysis (Phoenix® software, version 8.3, Pharsight Corporation, Mountain View, California 94040/USA) linear trapezoidal method with linear interpolation.

in vivo = settings: male, cynomolgus monkey, im, 28.3 mg/kg
Experimental: (§4) Procedure: In this single-dose pharmacokinetics study, four Non-Naïve male Cyno monkeys (Age—2.5-6 years, Weight 2-5 kg) were randomly assigned into two groups to evaluate the pharmacokinetics of Faslodex (1 animal) Vs. Compound I (3 animals) following single intramuscular (IM) administration. The test articles were monitored in plasma for up to 336 h (14 days) following dosing. Faslodex at dose of 25 mg/kg (50 mg/mL fulvestrant strength, 500 mg human equivalent dose) was intramuscularly administrated into monkey at study Day 0. The dosage volume 0.5 mL/kg was equally divided and administered at two sites. Compound I at dose 28.3 mg/kg (25 mg/kg Fulvestrant equivalent) having strength 169.5 mg/mL (150 mg/mL fulvestrant equivalent) was intramuscularly administrated into monkeys at study Day 0. The dosage volume of 0.15 mL/kg was administered on one IM site. Blood samples were collected through cephalic or saphenous vein at 0 (Pre-dose), 0.25, 1, 2, 4, 8, 12, 24, 48, 72, 96, 120, 144, 168, 192, 216, 240, 264, 288, 312, and 336 hours. Plasma concentrations of Compound I and fulvestrant were determined using LC/MS/MS to construct semi-logarithmic plasma concentration-time curves. Pharmacokinetic analysis was performed using non-compartmental model.

[5] = Pharmacokinetic study in male cynomolgus monkey (Example 25); settings: male cynomolgus monkeys; Compound I 28.3 mg/kg IM, 169.5 mg/mL, one site
Experimental: as §4

[6] = composition with 113 mg/ml compound I, Initial
[7] = composition with 113 mg/ml compound I, Room Temp (45 Days)
[8] = composition with 169.5 mg/ml compound I, Initial
[9] = composition with 169.5 mg/ml compound I, Room Temp (30 Days)
[10] = composition with 226 mg/ml compound I, Initial
[11] = composition with 226 mg/ml compound I, Room Temp (30 Days)

## C[C@]12CC[C@@H]3c4ccc(OP(=O)(O)O)cc4C[C@@H](CCC[S+]([O-])CCCC(F)(F)C(F)(F)F)[C@H]3[C@@H]1CC[C@@H]2O (stereo partly shown) [Compound I]
[1]; composition with 113 mg/ml compound I (equivalent to 100 mg/ml Fulvestrant), Initial
  Description: Clear colorless to light
[1]; [6]
  Assay of compound I(%): 104.0%
  Visual Inspection: Clear solution, No
[1]; [7]
  Assay of compound I(%): 103.3%
  Description: Clear colorless to light
  Visual Inspection: Clear solution, No
[1]; composition with 169.5 mg/ml compound I (equivalent to 150 mg/ml Fulvestrant), Initial
  Description: Clear colorless to light
[1]; [8]
  Assay of compound I(%): 100.4%
  Visual Inspection: Clear solution, No
[1]; [9]
  Assay of compound I(%): 95.30%
  Description: Clear colorless to light
  Visual Inspection: Clear solution, No
[1]; [10]
  Assay of compound I(%): 101.8%
  Visual Inspection: Clear solution, No
[1]; [11]
  Assay of compound I(%): 98%
  Description: Clear colorless to light
  Visual Inspection: Clear solution, No
[2]; IM single site
  Cmax: 969 ± 349 ng/mL
  Tmax: 3.17 ± 2.56 h
  AUC(0-t): 12400 ± 3430 ng·h/mL
[2]; IM two sites
  Cmax: 1150 ± 500 ng/mL
  Tmax: 1.83 ± 0.41 h
  AUC(0-t): 12800 ± 3120 ng·h/mL
[3]; Compound I 50 mg/mL
  AUC% exp. pol of Compound I: 0.967 ± 0.255%
  Cmax: 624 ± 274 ng/mL
  Tmax: 0.83 ± 1.01 h
  AUC(0-inf): 4260 ± 1060 ng·h/mL
  AUC(0-t): 4220 ± 1060 ng·h/mL
[3]; Compound I 100 mg/mL
  AUC% exp. pol of Compound I: 0.974 ± 0.886%
  Cmax: 272 ± 183 ng/mL
  Tmax: 1.83 ± 1.89 h
  AUC(0-inf): 4360 ± 1390 ng·h/mL
  AUC(0-t): 4320 ± 1410 ng·h/mL
[4]; dog, plasma
  Tmax: 8 h
[4]; dog, plasma, mean ± SD
  Cmax: 322 ± 14.1 ng/mL
[4]; dog, plasma, mean ± SD, read-out: AUCinf—obs of Compound I in plasma
  AUC(0-inf): 5540 ± 1880 ng·h/mL
[4]; dog, plasma, mean ± SD, read-out: AUClast of Compound I in plasma
  AUC(0-t): 5510 ± 1880 ng·h/mL
[4]; mean ± SD
  AUC% exp. pol of Compound I: 0.578 ± 0.303%
In vivo
  AUC(0-t): 17500 ng·h/mL
[5]
  C_max (Compound I in plasma): 1081 ng/mL
  T_max (Compound I in plasma): 3.42 h
  T_½ (Compound I in plasma): 12.79 h
  Tlast (Compound I in plasma): 152.00 h
